Measured values from patent US20170197935A1, “INHIBITORS OF DNA GYRASE FOR THE TREATMENT OF BACTERIAL INFECTIONS” (Vitas Pharma Research Private Limited, priority 2012, published 2017).
Converted amounts (≈) assume the structure as drawn. Like-named read-outs stand apart in the source and are kept apart here.

Key:
Type in all cases: cell-based
[1] = system: Streptococcus pneumoniae (ATCC 6301); test: MIC by microbroth dilution, Streptococcus pneumoniae ATCC 6301; conditions: ATCC6301
Procedure: (§1) Shown below are the microbiological activities of representative compounds of Formula I of the invention. The compounds were tested by the microbroth dilution method (National committee for Clinical Laboratory Standards, 2011, […]-08) and the Minimum Inhibitory Concentration (MIC) was determined.

[2] = system: Moraxella catarrhalis (ATCC 8176); test: MIC by microbroth dilution, Moraxella catarrhalis ATCC 8176; conditions: ATCC8176
Procedure: as §1

[3] = system: Staphylococcus aureus (ATCC 29213); test: MIC by microbroth dilution, Staphylococcus aureus ATCC 29213; conditions: ATCC29213
Procedure: as §1

[4] = system: Methicillin resistant Staphylococcus aureus (ATCC 33591); test: MIC by microbroth dilution, MRSA ATCC 33591
Procedure: (§2) Shown below are the microbiological activities of representative compounds of Formula I of the invention. The compounds were tested by the microbroth dilution method (National committee for Clinical Laboratory Standards, 2011, M07-08) and the Minimum Inhibitory Concentration (MIC) was determined.
(§3) Analysis of microbiological activity of compounds shown below are the microbiological activities of representative compounds of Formula II of the invention. The compounds were tested by the microbroth dilution method as per the reference in Example 1.

E. coli (ATCC 25922) = test: MIC by microbroth dilution, E. coli ATCC 25922; conditions: Escherichia coli
Procedure: as §2, §3

[5] = system: Enterococcus faecalis (ATCC 29212); test: MIC by microbroth dilution, Enterococcus faecalis ATCC 29212; conditions: ATCC29212
Procedure: as §1

[6] = ATCC33591, Formula I compounds, read-out: MIC Methicillin resistant Staphylococcus aureus (ATCC 33591)
[7] = ATCC25922, Formula I compounds, read-out: MIC E. coli (ATCC 25922)
[8] = Formula II compounds, read-out: Minimum Inhibitory Concentration (MIC) MRSA ATCC 33591
[9] = ATCC25922, Formula II compounds, read-out: Minimum Inhibitory Concentration (MIC) E. coli ATCC 25922

Row | Compound | MIC [1] [µg/mL] | MIC [2] [µg/mL] | MIC [3] [µg/mL] | MIC [4, 6] [µg/mL] | MIC (E. coli (ATCC 25922); [7]) [µg/mL] | MIC [5] [µg/mL] | MIC [4, 8] [µg/mL] | MIC (E. coli (ATCC 25922); [9]) [µg/mL]
1 | COc1ccc2ncc(C#N)c(CCN3C4CCC3CC(NS(=O)(=O)c3ccccc3C)C4)c2c1 (centres unmarked) [VT-03-00017] | > 16 | > 16 | > 32 | > 32 | > 32 | > 64 | – | –
2 | COc1ccc2ncc(C#N)c(CCN3C4CCC3CC(NCc3ccc5c(c3)OCCO5)C4)c2c1 (centres unmarked) [VT-03-00021a] | 0.12 (≈ 0.248 µM) | 2 (≈ 4.13 µM) | ≤ 0.03 | 0.06 (≈ 0.124 µM) | 16 (≈ 33 µM) | 2 (≈ 4.13 µM) | – | –
3 | COc1ccc2ncc(C#N)c(CCN3C4CCC3CC(NS(=O)(=O)c3ccc5ccccc5c3)C4)c2c1 (centres unmarked) [VT-03-00022] | 2 (≈ 3.8 µM) | 4 (≈ 7.6 µM) | 1 (≈ 1.9 µM) | 2 (≈ 3.8 µM) | > 64 | 4 (≈ 7.6 µM) | – | –
4 | COc1ccc2ncc(C#N)c(CCN3C4CCC3CC(NC(=O)c3ccc5c(c3)OCCO5)C4)c2c1 (centres unmarked) [VT-03-00024] | 2 (≈ 4.01 µM) | 8 (≈ 16 µM) | 1 (≈ 2.01 µM) | 2 (≈ 4.01 µM) | > 32 | 8 (≈ 16 µM) | – | –
5 | COc1ccc2ncc(C#N)c(CCN3C4CCC3CC(NCc3ccc5c(c3)NCCS5)C4)c2c1 (centres unmarked) [VT-03-00026a] | 2 (≈ 4 µM) | 4 (≈ 8.01 µM) | 1 (≈ 2 µM) | 2 (≈ 4 µM) | 16 (≈ 32 µM) | 8 (≈ 16 µM) | – | –
6 | COc1ccc2ncc(C#N)c(CCN3C4CCC3CC(NCc3cc5c(cn3)OCCO5)C4)c2c1 (centres unmarked) [VT-03-00027] | 2 (≈ 4.12 µM) | 8 (≈ 16.5 µM) | 2 (≈ 4.12 µM) | 4 (≈ 8.24 µM) | > 32 | 4 (≈ 8.24 µM) | – | –
7 | COc1ccc2c(c1)c(CCN1CCC(NCc3ccc4c(c3)NC(=O)CO4)CC1)c(C#N)c(=O)n2C [VT-03-00042] | – | – | > 16 | > 16 | > 32 | – | – | –
8 | COc1ccc2c(c1)c(CCN1CCC(NCc3ccc4c(c3)OCCO4)CC1)c(C#N)c(=O)n2C [VT-03-00043] | – | – | 16 (≈ 32.7 µM) | > 16 | > 32 | – | – | –
9 | COc1ccc2ncc(C#N)c(CCN3CCC(NCc4ccc(O)c(OC)c4)CC3)c2c1 [VT-03-00046] | – | – | 16 (≈ 35.8 µM) | > 16 | > 32 | – | – | –
10 | COc1ccc2ncc(C#N)c(CCN3CCC(NCc4cc(OC)c(O)c([N+](=O)[O-])c4)CC3)c2c1 [VT-03-00060] | – | > 32 | > 4 | > 4 | > 32 | – | – | –
11 | COc1ccc2ncc(C#N)c(CCN3[C@@H]4CC[C@H]3CC(NCc3ccc(C)c([N+](=O)[O-])c3)C4)c2c1 (some centres unmarked) [VT-03-00069] | – | – | > 4 | > 4 | > 4 | – | – | –
12 | COc1ccc2ncc(C#N)c(CCN3[C@@H]4CC[C@H]3CC(NCc3cc5c(c([N+](=O)[O-])c3)OCO5)C4)c2c1 (some centres unmarked) [VT-03-00070] | – | – | > 4 | > 4 | > 4 | – | – | –
13 | COc1ccc2ncc(C#N)c(CCN3CCC(NCc4cc([N+](=O)[O-])c(C)cc4C)CC3)c2c1 [VT-03-00072] | – | – | > 4 | > 4 | > 4 | – | – | –
14 | COc1ccc2ncc(C#N)c(CCN3CCC(NCc4ncc([N+](=O)[O-])[nH]4)CC3)c2c1 [VT-03-00078] | – | – | > 4 | – | > 32 | – | – | –
15 | COc1ccc2ncc(C#N)c(CCN3CCC(NCc4ccc([N+](=O)[O-])cn4)CC3)c2c1 [VT-03-00081] | – | – | – | 1 (≈ 2.24 µM) | > 32 | – | – | –
16 | COc1ccc2ncc(C#N)c(CCN3CCC(NCc4ccc(C)c([N+](=O)[O-])c4)(C(N)=O)CC3)c2c1 [VT-03-00083] | – | – | 0.06 (≈ 0.119 µM) | 0.12 (≈ 0.239 µM) | 4 (≈ 7.96 µM) | – | – | –
17 | CCc1ccc2ncc(=O)n(CCN3CCC(NCc4ccc(C)c(F)c4)CC3)c2c1 [VT-03-00112] | – | – | – | – | – | – | 0.125 (≈ 0.296 µM) | 2 (≈ 4.73 µM)
18 | Cc1ccc(CNC2CCN(CCn3c(=O)cnc4ccc(C(=O)O)cc43)CC2)cc1[N+](=O)[O-] [VT-03-00124] | – | – | – | – | – | – | – | 2 (≈ 4.3 µM)
19 | COc1ccc2ncc(=O)n(CCN3CCC(NCc4ccc(C)c([N+](=O)[O-])c4)CC3)c2n1 [VT-03-00125] | – | – | – | – | – | – | > 4 | 32 (≈ 70.7 µM)
20 | COc1ccc2ncc(=O)n(CCN3CC[C@H](NCc4ccc(C)c([N+](=O)[O-])c4)[C@@H](O)C3)c2c1 [VT-03-00135] | – | – | – | – | – | – | – | 8 (≈ 17.1 µM)
